Test results reported in patent US20250026724A1, “(1,4,5-TRISUBSTITUTED 1H-PYRAZOL-3-YL)OXY-2-ALKYLTHIOALKYL ACIDS AND -ALKYL ACID DERIVATIVES, SALTS THEREOF AND USE THEREOF AS ACTIVE HERBICIDAL INGREDIENTS” (BAYER AKTIENGESELLSCHAFT, priority 2021, published 2025).

Assays:
Type in all cases: in vivo
[1] = system: Abutilon theophrasti (ABUTH); test: Post-emergence herbicidal action, greenhouse pot trial; details: visual rating after about 3 weeks
In short: (§1)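 Activity scored visually roughly 3 weeks post-spray on a 0–100% scale against untreated plants, 100% meaning death. Treatment was post-emergence at one-leaf stage, aqueous spray of WP/EC formulation with 0.5% additive at 600 l/ha water, ≤320 g/ha. Plants grown in sandy loam under greenhouse conditions.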

[2] = system: Amaranthus retroflexus (AMARE); test: as above; details: visual rating after about 3 weeks
In short: as §1

Bassia scoparia (KCHSC) = test: as above
In short: as §1

[3] = system: Digitaria sanguinalis (DIGSA); test: as above; details: visual rating after about 3 weeks
In short: as §1

[4] = system: Echinochloa crus-galli (ECHCG); test: as above; details: visual rating after about 3 weeks
In short: as §1

[5] = system: Matricaria inodora (MATIN); test: as above; details: visual rating after about 3 weeks
In short: as §1

[6] = system: Pharbitis purpurea (PHBPU); test: as above; details: visual rating after about 3 weeks
In short: as §1

[7] = system: Polygonum convolvulus (POLCO); test: as above; details: visual rating after about 3 weeks
In short: as §1

Setaria viridis (SETVI) = test: as above; details: 320 g/ha, visual rating after about 3 weeks
In short: as §1

Viola tricolor (VIOTR) = test: as above
In short: as §1

Glycine max (GLXMA) = test: Post-emergence crop plant compatibility, greenhouse pot trial; details: in comparison to untreated controls
Description: (§2) Seeds of monocotyledonous and dicotyledonous weeds and crop plants are placed in sandy loam in plastic or organic planting pots, covered with soil and cultivated in a greenhouse under controlled growth conditions. 2 to 3 weeks after sowing, the trial plants are treated at the one-leaf stage. The compounds of the invention, formulated in the form of wettable powders (WP) or as emulsion concentrates (EC), are then sprayed onto the green parts of the plants as aqueous suspension or emulsion with addition of 0.5% additive at a water application rate equivalent to 600 l/ha. After about 3 weeks of keeping the trial plants in the greenhouse under optimum growth conditions, the effect of the preparations is rated visually in comparison to untreated controls. For example, 100% activity=the plants have died, 0% activity=like control plants.
(§3) The observed effects on selected crop plants are reported here in comparison to the untreated controls (values in %). The appendices “a”, “b” and “c” give differentiation by dosage used with otherwise the same useful plants tested.
(§4) As shown by results from Tables B1 to B19, inventive compounds of the general formula (I) in the case of post-emergence treatment have good herbicidal efficacy against harmful plants, for example Abutilon theophrasti (ABUTH), Alopecurus myosuroides (ALOMY), Amaranthus retroflexus (AMARE), Avena fatua (AVEFA), Digitaria sanguinalis (DIGSA), Echinochloa crus-galli (ECHCG), Bassia scoparia (KCHSC), Lolium rigidum (LOLRI), Matricaria inodora (MATIN), Pharbitis purpurea (PHBPU), Polygonum convolvulus (POLCO), Setaria viridis (SETVI), Veronica persica (VERPE) and Viola tricolor (VIOTR) at an application rate of 320 g of active substance or less per hectare, and good crop plant compatibility in the case of organisms such as Oryza sativa (ORYSA), Zea mays (ZEAMX), Brassica napus (BRSNW), Glycine max (GLXMA) and Triticum aestivum (TRZAS) at an application rate of 320 g or less per hectare.

[8] = system: Triticum aestivum (TRZAS); test: as above; details: 20 g/ha, post-emergence, in comparison to untreated controls
Description: as §2, §3, §4

Avena fatua (AVEFA) = test: Post-emergence herbicidal action, greenhouse pot trial; details: 320 g/ha, visual rating after about 3 weeks
In short: as §1

Lolium rigidum (LOLRI) = test: as above; details: 320 g/ha, visual rating after about 3 weeks
In short: as §1

Zea mays (ZEAMX) = test: Post-emergence crop plant compatibility, greenhouse pot trial; details: in comparison to untreated controls
Description: as §2, §3, §4

Veronica persica (VERPE) = test: Post-emergence herbicidal action, greenhouse pot trial; details: visual rating after about 3 weeks
In short: as §1

[9] = system: Alopecurus myosuroides (ALOMY); test: as above; details: 320 g/ha, visual rating after about 3 weeks
In short: as §1

Row | Compound | Post-emergence effect at 320 g/ha against ABUTH in % [1] | Post-emergence effect at 320 g/ha against AMARE in % [2] | Post-emergence effect against KCHSC (Bassia scoparia (KCHSC); 320 g/ha) | Post-emergence effect at 320 g/ha against DIGSA in % [3] | Post-emergence effect at 320 g/ha against ECHCG in % [4] | Post-emergence effect at 320 g/ha against MATIN in % [5] | Post-emergence effect at 320 g/ha against PHBPU in % [6] | Post-emergence effect at 320 g/ha against POLCO in % [7] | Post-emergence effect at 320 g/ha against SETVI in % (Setaria viridis (SETVI)) | Post-emergence effect against VIOTR (Viola tricolor (VIOTR); 80 g/ha) | Post-emergence effect against VIOTR (Viola tricolor (VIOTR); 320 g/ha) | Post-emergence effect against TRZAS (crop plant compatibility) [8] | Post-emergence effect at 80 g/ha against ABUTH in % [1] | Post-emergence effect at 320 g/ha against AVEFA in % (Avena fatua (AVEFA)) | Post-emergence effect at 320 g/ha against LOLRI in % (Lolium rigidum (LOLRI)) | Post-emergence effect at 80 g/ha against MATIN in % [5] | Post-emergence effect at 80 g/ha against PHBPU in % [6] | Post-emergence effect at 80 g/ha against POLCO in % [7] | Post-emergence effect against VIOTR (Viola tricolor (VIOTR); 20 g/ha) | Post-emergence effect against ZEAMX (crop plant compatibility) (Zea mays (ZEAMX); 20 g/ha) | further results
1 | COC(=O)C(C)COC(=O)C(Oc1nn(-c2ccccc2F)c(-c2ccc(F)nc2)c1I)SC (centres unmarked) [Example I-53] | 80% | 90% | 80% | 80% | 100% | 80% | 80% | 90% | 90% | 80% | 90% | 0% | – | – | – | – | – | – | – | – | Post-emergence effect against GLXMA (crop plant compatibility) (Glycine max (GLXMA); 20 g/ha): 0%; Post-emergence effect against GLXMA (crop plant compatibility) (Glycine max (GLXMA); 80 g/ha): 0%
2 | COC(=O)CCOC(=O)C(Oc1nn(-c2ncccc2F)c(-c2cncc(F)c2)c1Br)SC (centres unmarked) [Example I-45] | 90% | 90% | 90% | 90% | 90% | 90% | 80% | 80% | 90% | 90% | 90% | 0% | 90% | 100% | 100% | 90% | 80% | 80% | 80% | 0% | Post-emergence action at 20 g/ha against ABUTH in % [1]: 90%; Post-emergence effect at 20 g/ha against AMARE in % [2]: 80%; Post-emergence effect at 80 g/ha against AMARE in % [2]: 90%; Post-emergence effect at 20 g/ha against KCHSC in % (Bassia scoparia (KCHSC); 20 g/ha, visual rating after about 3 weeks): 90%; Post-emergence effect against KCHSC (Bassia scoparia (KCHSC); 80 g/ha): 90%; Post-emergence effect at 80 g/ha against DIGSA in % [3]: 80%; Post-emergence effect at 20 g/ha against MATIN in % ([5]; 20 g/ha): 80%; Post-emergence effect against ZEAMX (crop plant compatibility) (Zea mays (ZEAMX); 80 g/ha): 0%
3 | COC(=O)CCOC(=O)C(Oc1nn(-c2ncccc2F)c(-c2cncc(F)c2)c1C1CC1)SC (centres unmarked) [Example I-63] | 90% | 90% | 90% | – | 90% | 90% | 90% | 80% | 90% | 90% | 90% | 20% | 80% | 100% | 90% | 80% | 90% | – | 90% | 0% | Post-emergence action at 20 g/ha against ABUTH in % [1]: 80%; Post-emergence effect at 20 g/ha against AMARE in % [2]: 80%; Post-emergence effect at 80 g/ha against AMARE in % [2]: 80%; Post-emergence effect at 80 g/ha against VERPE in % (Veronica persica (VERPE); 80 g/ha): 80%; Post-emergence effect at 320 g/ha against VERPE in % (Veronica persica (VERPE); 320 g/ha): 90%
4 | COC(=O)CCOC(=O)C(Oc1nn(-c2ncccc2F)c(-c2ccc(F)nc2)c1Br)SC (single isomer, unassigned) [Example I-23] | 90% | 80% | – | 90% | 90% | 90% | 90% | 90% | 90% | 80% | 90% | – | 80% | 80% | 90% | 80% | 80% | 80% | – | 0% | Post-emergence effect at 320 g/ha against ALOMY in % [9]: 80%; Post-emergence effect at 80 g/ha against DIGSA in % [3]: 90%; Post-emergence effect at 80 g/ha against ECHCG in % ([4]; 80 g/ha): 90%
5 | COC(=O)CCOC(=O)C(Oc1nn(-c2ncccc2F)c(-c2ccc(F)nc2)c1Br)SC (single isomer, unassigned) [Example I-22] | 90% | 80% | 90% | – | 90% | – | 90% | 90% | 80% | 90% | 90% | 0% | 90% | – | – | – | 90% | 90% | 80% | 0% | Post-emergence effect at 20 g/ha against PHBPU in % ([6]; 20 g/ha): 80%
